The record followed here is US9757388B2 (Acerus Pharmaceuticals SRL, priority 2011, dated 2017).

The conditions of this series: drug substance.

With `C[C@]12CC[C@H]3[C@@H](CCC4=CC(=O)CC[C@@]43C)[C@@H]1CC[C@@H]2O` [Testosterone, 17β-Hydroxyandrost-4-en-3-one], the Stability in air entry was “powder. It is odourless, and stable in air”.
